Reference: EP3186387B1, “METHOD OF DETERMINING THE ACTIVITY OF ENZYMES CONVERTING CYTOSINE DERIVATIVES TO URACIL DERIVATIVES IN CELLS, TISSUES AND ORGANISMS” (Univerzita Palackého v Olomouci, priority 2014, dated 2016)

Tested on: HeLa cells
Experiment: Determination of the deamination activity in adherent HeLa cells: signal of EdU/EdC in DNA, detected by anti-bromodeoxyuridine antibody or click reaction
Assay type: cell-based, Human
Conditions: for ratios of EC50 in EdU and EdC (KEdU½/KEdC½): two hours of incubation, without FdU
Excerpt: • Figure 1 The metabolism of EdC and EdCMP from the perspective of the deamination activity of some known deaminases in human cells. CDA - 2'-deoxycytidine/cytidine deaminase; dCK - 2'-deoxycytidine kinase; dCMPDA - 2'-deoxycytidine-5'-phosphate deaminase; cdN and mdN - cytosolic and mitochondrial pyrimidine specific 5'-deoxynucleotidase • Figure 2: Schematic depiction of determination of the activity of the enzymes transforming cytosine derivatives into uracil derivatives. • Figure 3: Determination of the deamination activity in HeLa cells using specific antibodies or using a click reaction (Example 1). The figure depicts the dependence of the average intensity of the signals on the used concentrations of EdU or EdC after two hours of incubation with various concentrations of EdU or EdC without the addition of FdU. Two methods were used for the detection of both modified nucleosides: A) detection with a click reaction with an azido dye (Alexa Fluor 488- azide); B) detection using primary anti-bromodeoxyuridine antibody and secondary antibody conjugated with Alexa Fluor 488. The measured intensities of the signals were processed in the Sigma Plot software, in which the curve was constructed and the half of maximal effective concentration (EC50) was determined. It is clear from the course of the graphs that EdC is not likely to be incorporated in the DNA. This was confirmed also by the mutual ratios between the measured values of the intensities obtained by the antibodies and by the click reaction. These ratios were 1.099 for EdU and 1.060 for EdC. […] For the determination, it is also possible to use other measured concentrations, because there was no saturation of the signal even at higher concentrations. • Figure 4 Time curve (Example 1). […] The incorporated nucleosides were detected using a click reaction with azidofluorochrome. • Figure 5: The comparison of the incorporation of FU and FC into HeLa cells when using various concentrations (Example 1). […] EdU was detected with antibodies. […]

ratios of EC50 in EdU and EdC (KEdU½/KEdC½) (detection performed by the antibodies): 0.23 | ratios of EC50 in EdU and EdC (KEdU½/KEdC½) (detection performed by the click reaction): 0.32
SMILES: C#Cc1cn([C@H]2C[C@H](O)[C@@H](CO)O2)c(=O)nc1N [EdC, 5-ethynyl-2'-deoxycytidine]
concentration of EdU providing approximately such a signal as 5 µmol.l^-1 EdC (EdC around 5 µmol.l^-1, not in the saturation area): ~0.55 µmol/L
